Measured values from the RepoRT retention time repository (doi:10.1016/j.jchromb.2020.122105).

Legend:
Settings in all cases: stereoisomer not certain
[1] = RP, Waters ACQUITY UPLC BEH C18, 100 × 2.1 mm, 1.7 µm, 0.1 mL/min, estimated dead time 2.2 min; A: water + 0.1% formic acid, pH 3; B: methanol + 0.1% formic acid, pH 3; gradient (min/%B) 0/5 5/5 25/95 25.1/100 35/100 35.1/5 45/5
[2] = RP, Waters ACQUITY UPLC BEH C18, 100 × 2.1 mm, 1.7 µm, 0.2 mL/min, estimated dead time 1.1 min; A: water + 0.1% formic acid, pH 3; B: methanol + 0.1% formic acid, pH 3; gradient (min/%B) 0/5 5/5 25/100 30/100 30.1/5 35/5
[3] = RP, Waters CORTECS T3, 100 × 2.1 mm, 2.7 µm, 0.3 mL/min, estimated dead time 0.73 min; A: water + 0.1% formic acid, pH 3; B: methanol + 0.1% formic acid, pH 3; gradient (min/%B) 0/0 1/0 6/5 30/100 35/100 35.1/0 40/0
[4] = HILIC, Merck SeQuant ZIC-HILIC, 150 × 2.1 mm, 5 µm, 0.75 mL/min, estimated dead time 0.44 min; A: water + 0.1% acetic acid + 10 mM ammonium acetate, pH 4; B: 5% water + 95% acetonitrile + 0.1% acetic acid + 10 mM ammonium acetate, pH 4; gradient (min/%B) 0/95 5/95 20/57 25/57 30/95 40/95
[5] = HILIC, Waters XBridge BEH Amide, 100 × 2.1 mm, 2.5 µm, 0.5 mL/min, estimated dead time 0.44 min; A: water + 0.1% acetic acid + 10 mM ammonium acetate, pH 4; B: 5% water + 95% acetonitrile + 0.1% acetic acid + 10 mM ammonium acetate, pH 4; gradient (min/%B) 0/95 5/95 20/57 25/57 30/95 40/95
[6] = RP, Waters CORTECS T3, 100 × 2.1 mm, 2.7 µm, 0.15 mL/min, estimated dead time 1.5 min; A: water + 0.1% formic acid, pH 3; B: methanol + 0.1% formic acid, pH 3; gradient (min/%B) 0/5 5/5 25/95 25.1/100 35/100 35.1/5 45/5
[7] = RP, Thermo Scientific Hypercarb, 150 × 2.1 mm, 5 µm, 0.1 mL/min, estimated dead time 3.3 min; A: water + 0.1% formic acid, pH 3; B: methanol + 0.1% formic acid, pH 3; gradient (min/%B) 0/5 5/5 20/100 35/100 35.1/5 45/5
[8] = RP, Waters CORTECS T3, 100 × 2.1 mm, 2.7 µm, 0.2 mL/min, estimated dead time 1.1 min; A: water + 0.1% formic acid, pH 3; B: methanol + 0.1% formic acid, pH 3; gradient (min/%B) 0/0 1/0 6/5 30/100 35/100 35.1/0 40/0
[9] = RP, Waters CORTECS T3, 100 × 2.1 mm, 2.7 µm, 0.25 mL/min, estimated dead time 0.88 min; A: water + 0.1% formic acid, pH 3; B: methanol + 0.1% formic acid, pH 3; gradient (min/%B) 0/5 5/5 25/95 25.1/100 35/100 35.1/5 45/5
[10] = RP, Waters CORTECS T3, 100 × 2.1 mm, 2.7 µm, 0.3 mL/min, estimated dead time 0.73 min; A: water + 0.1% formic acid, pH 3; B: methanol + 0.1% formic acid, pH 3; gradient (min/%B) 0/0 5/0 25/100 30/100 30.1/0 35/0
[11] = HILIC, Merck SeQuant ZIC-HILIC, 150 × 2.1 mm, 5 µm, 0.75 mL/min, estimated dead time 0.44 min; A: water + 10 mM ammonium formate, pH 6; B: 5% water + 95% acetonitrile + 10 mM ammonium formate, pH 6; gradient (min/%B) 0/95 5/95 20/57 25/57 30/95 40/95
[12] = RP, Waters ACQUITY UPLC BEH C18, 100 × 2.1 mm, 1.7 µm, 0.2 mL/min, estimated dead time 1.1 min; A: water + 0.025% formic acid + 20 mM ammonium acetate + 0.055% ammonium hydroxide, pH 7; B: methanol; gradient (min/%B) 0/5 5/5 25/100 30/100 30.1/5 35/5
[13] = RP, Waters ACQUITY UPLC BEH C18, 100 × 2.1 mm, 1.7 µm, 0.1 mL/min, estimated dead time 2.2 min; A: water + 0.1% formic acid, pH 3; B: methanol + 0.1% formic acid, pH 3; gradient (min/%B) 0/5 5/5 25/95 25.1/100 35/100 35.1/5 45/5; remark: listed apart in the source
[14] = RP, Waters CORTECS T3, 100 × 2.1 mm, 2.7 µm, 0.2 mL/min, estimated dead time 1.1 min; A: water + 0.1% formic acid, pH 3; B: methanol + 0.1% formic acid, pH 3; gradient (min/%B) 0/0 1/0 6/5 30/100 35/100 35.1/0 40/0; remark: listed apart in the source
[15] = RP, Waters CORTECS T3, 100 × 2.1 mm, 2.7 µm, 0.2 mL/min, estimated dead time 1.1 min; A: water + 0.045% formic acid + 0.11% ammonium hydroxide, pH 7; B: methanol; gradient (min/%B) 0/5 5/5 25/95 25.1/100 35/100 35.1/5 45/5
[16] = RP, Waters CORTECS T3, 100 × 2.1 mm, 2.7 µm, 0.2 mL/min, estimated dead time 1.1 min; A: water + 0.1% formic acid, pH 3; B: methanol + 0.1% formic acid, pH 3; gradient (min/%B) 0/5 5/5 25/95 25.1/100 35/100 35.1/5 45/5
[17] = RP, Waters ACQUITY UPLC BEH C18, 100 × 2.1 mm, 1.7 µm, 0.2 mL/min, estimated dead time 1.1 min; A: water + 0.025% formic acid + 20 mM ammonium acetate + 0.055% ammonium hydroxide, pH 7; B: methanol; gradient (min/%B) 0/5 5/5 25/100 30/100 30.1/5 35/5; remark: listed apart in the source
[18] = RP, Waters CORTECS T3, 100 × 2.1 mm, 2.7 µm, 0.25 mL/min, estimated dead time 0.88 min; A: water + 0.1% formic acid, pH 3; B: methanol + 0.1% formic acid, pH 3; gradient (min/%B) 0/0 1/0 6/5 30/100 35/100 35.1/0 40/0
[19] = RP, Waters CORTECS T3, 100 × 2.1 mm, 2.7 µm, 0.3 mL/min, estimated dead time 0.73 min; A: water + 0.1% formic acid, pH 3; B: methanol + 0.1% formic acid, pH 3; gradient (min/%B) 0/5 5/5 25/95 25.1/100 35/100 35.1/5 45/5
[20] = RP, Waters ACQUITY UPLC BEH C18, 100 × 2.1 mm, 1.7 µm, 0.1 mL/min, estimated dead time 2.2 min; A: water + 0.045% formic acid + 0.11% ammonium hydroxide, pH 7; B: methanol; gradient (min/%B) 0/5 5/5 25/95 25.1/100 35/100 35.1/5 45/5
[21] = RP, Waters CORTECS T3, 100 × 2.1 mm, 2.7 µm, 0.3 mL/min, estimated dead time 0.73 min; A: water + 0.1% formic acid, pH 3; B: methanol + 0.1% formic acid, pH 3; gradient (min/%B) 0/5 5/5 25/100 30/100 30.1/5 35/5
[22] = RP, Waters CORTECS T3, 100 × 2.1 mm, 2.7 µm, 0.3 mL/min, estimated dead time 0.73 min; A: water + 0.1% formic acid, pH 3; B: methanol + 0.1% formic acid, pH 3; gradient (min/%B) 0/0 1/0 6/5 30/100 35/100 35.1/0 40/0; remark: listed apart in the source
[23] = RP, Waters CORTECS T3, 100 × 2.1 mm, 2.7 µm, 0.3 mL/min, estimated dead time 0.73 min; A: water + 0.1% formic acid, pH 3; B: methanol + 0.1% formic acid, pH 3; gradient (min/%B) 0/0 5/0 25/100 30/100 30.1/0 35/0; remark: listed apart in the source
[24] = RP, Waters CORTECS T3, 100 × 2.1 mm, 2.7 µm, 0.1 mL/min, estimated dead time 2.2 min; A: water + 0.1% formic acid, pH 3; B: methanol + 0.1% formic acid, pH 3; gradient (min/%B) 0/0 1/0 6/5 30/100 35/100 35.1/0 40/0
[25] = RP, Waters CORTECS T3, 100 × 2.1 mm, 2.7 µm, 0.15 mL/min, estimated dead time 1.5 min; A: water + 0.1% formic acid, pH 3; B: methanol + 0.1% formic acid, pH 3; gradient (min/%B) 0/0 1/0 6/5 30/100 35/100 35.1/0 40/0
[26] = RP, Waters ACQUITY UPLC BEH C18, 100 × 2.1 mm, 1.7 µm, 0.1 mL/min, estimated dead time 2.2 min; A: water + 0.1% formic acid, pH 3; B: methanol + 0.1% formic acid, pH 3; gradient (min/%B) 0/5 5/5 25/100 30/100 30.1/5 35/5

| SMILES | LC retention time [1] | LC retention time [2] | LC retention time [3] | LC retention time [4] | LC retention time [5] | LC retention time [6] | LC retention time [8] | LC retention time [9] | LC retention time [10] | LC retention time [11] | LC retention time [12] | LC retention time [13] | LC retention time [16] | LC retention time [18] | LC retention time [26] | also measured |
| --- | --- | --- | --- | --- | --- | --- | --- | --- | --- | --- | --- | --- | --- | --- | --- | --- |
| CC(=O)NCCc1c[nH]c2ccc(O)cc12 [N-ACETYLSEROTONIN] | 13.7 min |  |  | 1.09 min | 0.95 min | 11.8 min |  |  |  | 1.15 min | 10.2 min |  | 15.3 min | 11.3 min | 13.6 min | LC retention time [14]: 12.1 min; LC retention time [15]: 10.7 min; LC retention time [17]: 10.6 min; LC retention time [19]: 9.27 min; LC retention time [20]: 13.7 min; LC retention time [21]: 9.2 min; LC retention time [22]: 10.8 min; LC retention time [23]: 10.4 min; LC retention time [24]: 10.6 min; LC retention time [25]: 13.3 min |
| C[N+](C)(C)CCOP(=O)(O)OP(=O)([O-])OCC1OC(n2ccc(N)nc2=O)C(O)C1O (configuration not stated) [CYTIDINE 5'-DIPHOSPHOCHOLINE] |  |  |  |  |  |  |  |  |  |  |  | 2.72 min |  | 1.09 min |  | LC retention time [14]: 1.34 min; LC retention time [25]: 1.78 min |
| NCCP(=O)(O)O [(2-AMINOETHYL)PHOSPHONATE] |  |  |  |  |  |  |  |  |  |  |  | 2.75 min | 2.44 min |  |  |  |
| CC(=O)N[C@@H](CC(C)C)C(=O)O [N-ACETYL-L-LEUCINE] | 17.2 min | 13.3 min | 12.8 min | 5.95 min | 7.4 min | 14.3 min | 14.6 min | 12 min | 12.2 min | 6.56 min | 6.59 min |  | 18.4 min |  |  |  |
| CC(=O)N[C@@H](Cc1ccccc1)C(=O)O [N-ACETYL-L-PHENYLALANINE] | 17.7 min | 13.8 min | 13.6 min | 5.57 min | 6.98 min | 14.9 min | 15.3 min | 12.7 min | 12.8 min | 6.61 min | 8.81 min |  | 19 min | 14.4 min | 17.3 min | LC retention time [15]: 9.59 min; LC retention time [19]: 12 min; LC retention time [20]: 13.6 min; LC retention time [21]: 11.8 min; LC retention time [22]: 13.6 min; LC retention time [23]: 12.8 min; LC retention time [24]: 13.6 min |
| CN(CC(=O)O)C(N)=NP(=O)(O)O [CREATINE PHOSPHATE] |  |  |  |  |  |  |  |  |  |  |  | 3.05 min |  |  |  |  |

Further lines, with some results ahead:

| LC retention time [1] | LC retention time [2] | LC retention time [3] | LC retention time [4] | LC retention time [5] | LC retention time [6] | LC retention time [8] | LC retention time [9] | LC retention time [10] | LC retention time [11] | LC retention time [12] | LC retention time [13] | LC retention time [16] | LC retention time [18] | LC retention time [26] | SMILES | also measured |
| --- | --- | --- | --- | --- | --- | --- | --- | --- | --- | --- | --- | --- | --- | --- | --- | --- |
| 4.43 min | 2.27 min | 2.22 min | 13.6 min | 13.6 min | 2.89 min | 3.1 min | 1.77 min | 2.22 min | 14 min | 1.36 min |  |  |  |  | CC(=O)NC(CCC(=O)O)C(=O)O (racemic) [N-ACETYL-DL-GLUTAMIC ACID] | LC retention time [7]: 24 min |
|  |  |  |  |  |  |  |  |  |  |  | 2.66 min |  |  |  | C[N+](C)(C)CCOP(=O)(O)O [PHOSPHOCHOLINE] | LC retention time [7]: 4.81 min |
| 2.7 min | 3.31 min | 5.43 min | 10.1 min | 10.3 min | 4.79 min | 7.02 min | 2.95 min |  | 10.5 min | 1.76 min |  | 10.9 min |  | 2.74 min | Nc1nc2c(ncn2C2OC(CO)C(O)C2O)c(=O)[nH]1 (configuration not stated) [GUANOSINE] |  |
|  |  |  |  |  |  |  |  |  |  |  | 2.78 min |  |  | 2.74 min | NC(=O)c1ccc[n+](C2OC(COP(=O)(O)OP(=O)(O)OCC3OC(n4cnc5c(N)ncnc54)C(O)C3O)C(O)C2O)c1 (configuration not stated) [NAD] |  |
